This is an account of results in publication PMC6723808, “New Benzofuranoids and Phenylpropanoids from the Mangrove Endophytic Fungus, Aspergillus sp. ZJ-68” (Marine Drugs, 2019).

Molecules are shown by their SMILES. In brackets after ≈: the same amount, converted by molar mass.

Assay in all cases: Antibacterial assay, MIC by continuous dilution method in 96-well plates
For one assay, the system named is S. aureus (ATCC 25923). The assay is classed as cell-based, Staphylococcus aureus. The following applies: for MIC: Staphylococcus aureus, ATCC25923, S. aureus ATCC 25923, read-out: MIC (μg/mL) S. aureus. As for the experimental part: (§1) Two Gram-positive bacteria B. subtilis (ATCC 6633) and S. aureus (ATCC 25923), and two Gram-negative bacteria E. coli (ATCC 25922) and P. aeruginosa (ATCC 27853) were used. The antibacterial assay and the determination of the MIC were assessed according to continuous dilution method in 96-well plates which has been described in our published paper. The tested substances were dissolved in DMSO and ciprofloxacin was the positive control.

For another assay, the system named is E. coli (ATCC 25922). The assay is classed as cell-based, Escherichia coli. Conditions: for MIC: Escherichia coli, ATCC25922, E. coli ATCC 25922, read-out: MIC (μg/mL) E. coli. As for the experimental part:
as §1

In the next assay the test system is B. subtilis (ATCC 6633). The assay is classed as cell-based, Bacillus subtilis. Conditions: for MIC: Bacillus subtilis, ATCC6633, B. subtilis ATCC 6633, read-out: MIC (μg/mL) B. subtilis. As for the experimental part: as §1
Assay [1] relates to P. aeruginosa (ATCC 27853). The assay is classed as cell-based. Conditions: Pseudomonas aeruginosa, ATCC27853, read-out: MIC (μg/mL) P. aeruginosa. As for the experimental part:
as §1

With `CCCc1ccc(O)c(O)c1CO` [Compound 6, Asperpanoid A], the MIC (in the assay with S. aureus (ATCC 25923); in the assay with E. coli (ATCC 25922); with B. subtilis (ATCC 6633); in assay [1]) was greater than 100 µg/mL throughout.

Take `CCCc1cccc(O)c1CO` [Compound 8, 2-(hydroxymethyl)-3-propylphenol]: the “MIC (μg/mL) S. aureus” value against S. aureus (ATCC 25923) (S. aureus ATCC 25923) was 4.15 ± 1.12 µg/mL (≈ 25 µM). In addition, the MIC in the assay with S. aureus (ATCC 25923) is 4.15 to 12.5 µg/mL (≈ 25 to 75.2 µM); in the assay on E. coli (ATCC 25922), 4.15 to 12.5 µg/mL (≈ 25 to 75.2 µM); in the assay with B. subtilis (ATCC 6633) it was 4.15 to 12.5 µg/mL (≈ 25 to 75.2 µM); in assay [1], greater than 100 µg/mL. The “MIC (μg/mL) E. coli” value against E. coli (ATCC 25922) (E. coli ATCC 25922) was found to be 8.3 ± 1.0 µg/mL (≈ 49.9 µM). Besides, in the assay on B. subtilis (ATCC 6633) (B. subtilis ATCC 6633), the “MIC (μg/mL) B. subtilis” value was 8.3 ± 1.1 µg/mL (≈ 49.9 µM).

Take `CCCc1ccc2c(c1CO)O[C@@H](C(C)(C)O)C2` [Compound 11, (−)-brassicadiol]: in assay [1], the MIC was greater than 100 µg/mL.

For `CC(C)=C1Oc2c(ccc3c2[C@@H](O)O[C@H](C)C3)C1=O` [Compound 12, (+)-pseudodeflectusin], the MIC (with S. aureus (ATCC 25923); in the assay with E. coli (ATCC 25922); in the assay with B. subtilis (ATCC 6633); in assay [1]) was greater than 100 µg/mL each time.

On to `CC(C)=C1Oc2c(ccc(CC(C)O)c2CO)C1=O` (stereo not drawn) [Compound 14, ustusorane A], for which the MIC (in the assay with S. aureus (ATCC 25923); in the assay with E. coli (ATCC 25922); in the assay with B. subtilis (ATCC 6633); in assay [1]) was greater than 100 µg/mL throughout.

Turning to `O=C(O)c1cn(C2CC2)c2cc(N3CCNCC3)c(F)cc2c1=O` [ciprofloxacin, reference compound], the MIC in the assay on S. aureus (ATCC 25923) was determined as 1.25 ± 1.1 µg/mL (≈ 3.77 µM); in the assay on E. coli (ATCC 25922), 1.25 ± 1.12 µg/mL (≈ 3.77 µM); with B. subtilis (ATCC 6633) it was 2.5 ± 1.1 µg/mL (≈ 7.54 µM); in assay [1], 2.5 ± 1.2 µg/mL (≈ 7.54 µM).
